pIC50: −log10 of the molar value.
Assays:
Saccharomyces cerevisiae [1] = assay: Antifungal activity against Saccharomyces cerevisiae YJM789 assessed as fungal growth inhibition incubated for 24 hrs by plate reader method; format: functional, organism-based; conditions: YJM789, 24 h
Saccharomyces cerevisiae [2] = assay: Antifungal activity against Saccharomyces cerevisiae BY4743 assessed as fungal growth inhibition incubated for 24 hrs by plate reader method; format: functional, organism-based; conditions: BY4743, 24 h
Candida albicans = assay: Antifungal activity against Candida albicans ATCC 90028 assessed as fungal growth inhibition incubated for 36 hrs by resazurin dye based analysis; format: functional
[3] = Cytotoxicity against HEK293 cells assessed as cell growth inhibition measured after 20 hrs by resazurin dye based assay; format: toxicity; conditions: human
Saccharomyces cerevisiae [4] = assay: Antifungal activity against Saccharomyces cerevisiae PA3-10-3 variant assessed as fungal growth inhibition incubated for 24 hrs by plate reader method; format: functional, organism-based
Pseudomonas aeruginosa = assay: Antibacterial activity against Pseudomonas aeruginosa ATCC 27853 assessed as inhibition of bacterial growth measured after 18 hrs by resazurin dye based analysis; format: functional
Staphylococcus aureus = assay: Antibacterial activity against methicillin-resistant Staphylococcus aureus ATCC 43300 assessed as inhibition of bacterial growth measured after 18 hrs by resazurin dye based analysis; format: functional
Escherichia coli = assay: Antibacterial activity against Escherichia coli ATCC 25922 assessed as inhibition of bacterial growth measured after 18 hrs by resazurin dye based analysis; format: functional
Acinetobacter baumannii = assay: Antibacterial activity against Acinetobacter baumannii ATCC 19606 assessed as inhibition of bacterial growth measured after 18 hrs by resazurin dye based analysis; format: functional
Klebsiella pneumoniae = assay: Antibacterial activity against Klebsiella pneumoniae ATCC 700603 assessed as inhibition of bacterial growth measured after 18 hrs by resazurin dye based analysis; format: functional
Cryptococcus neoformans = assay: Antifungal activity against Cryptococcus neoformans ATCC 208821 assessed as fungal growth inhibition incubated for 36 hrs by resazurin dye based analysis; format: functional

C[C@]1(C(=O)O)CCC[C@]2(C)c3cc(OC(=O)CCCNCCCCCCCCCCNCCCNC(=O)Oc4ccc5c(c4)[C@@]4(C)CCC[C@](C)(C(=O)O)[C@@H]4CC5)ccc3CC[C@@H]12.O=C(O)C(F)(F)F.O=C(O)C(F)(F)F
pIC50 (Saccharomyces cerevisiae [1]): 4.84 | pIC50 (Saccharomyces cerevisiae [2]): 5.44 | MIC (Candida albicans): > 28.7 µM | IC50 at 20 h [3]: > 28.7 µM | pIC50 (Saccharomyces cerevisiae [4]): < 4.60 | MIC (Pseudomonas aeruginosa): > 28.7 µM | MIC (Staphylococcus aureus): > 28.7 µM | MIC (Escherichia coli): > 28.7 µM | MIC (Acinetobacter baumannii): > 28.7 µM | MIC (Klebsiella pneumoniae): > 28.7 µM | MIC (Cryptococcus neoformans): 7.17 µM

Source: ChEMBL document CHEMBL5143685, “Valorisation of the diterpene podocarpic acid - Antibiotic and antibiotic enhancing activities of polyamine conjugates” (Bioorg Med Chem, 2022)
